Laboratory results reported in US7183324B2, “2,3,4-substituted cyclopentanones as therapeutic agents” (Allergan, Inc., priority 2004, dated 2007).
pEC50, pIC50: −log10 of the molar value.

Legend:
HEP4 = biological target: T1, HEP4 (Homo sapiens, UniProt P35408); assay: Radioligand binding, EP4 receptor; details: [3H]PGE2 5 nM, HEK-293 membranes
T1 construct: expressed in transfected cells; host or cells: HEK-293
Method: (§1) HEK-293 cells stably expressing the human or feline FP receptor, or EP1, EP2, or EP4 receptors were washed with TME buffer, scraped from the bottom of the flasks, and homogenized for 30 sec using a Brinkman PT 10/35 polytron. TME buffer was added to achieve a final 40 ml volume in the centrifuge tubes (the composition of TME is 100 mM TRIS base, 20 mM MgCl2, […]; 10N HCl is added to achieve a pH of 7.4).
(§2) The cell homogenate was centrifuged at 19000 r.p.m. for 20 min at 4° C. using a Beckman Ti-60 rotor. The resultant pellet was resuspended in TME buffer to give a final 1 mg/ml protein concentration, as determined by Biorad assay. Radioligand binding competition assays vs. [^3H-]17-phenyl PGF2α (5 nM) were performed in a 100 μl volume for 60 min. Binding reactions were started by adding plasma membrane fraction. The reaction was terminated by the addition of 4 ml ice-cold TRIS-HCl buffer and rapid filtration through glass fiber GF/B filters using a Brandel cell harvester. The filters were washed 3 times with ice-cold buffer and oven dried for one hour. Non-specific binding was determined with 10 uM unlabeled 17-phenyl PGF2α.
(§3) [^3H-] PGE2 (5 nM; specific activity 180 Ci mmol) was used as the radioligand for EP receptors. Binding studies employing EP1, EP2, EP3, EP4 were performed in duplicate in at least three separate experiments. A 200 μl assay volume was used. Incubations were for 60 min at 25° C. and were terminated by the addition of 4 ml of ice-cold 50 mM TRIS-HCl, followed by rapid filtration through Whatman GF/B filters and three additional 4 ml washes in a cell harvester (Brandel). Non-specific binding determined with 10^−5M of unlabeled PGE2.

hEP3A/Gqi5 = biological target: T2, hEP3A/Gqi5 (Homo sapiens, UniProt P43115); assay: FLIPR calcium signal, hEP3A/Gqi5; format: cell-based; details: HEK-293 (EBNA) cells, read-out: FUNCTIONAL EC50 HEP3A
T2 construct: expressed in transfected cells; host or cells: HEK-293 (EBNA)
T2 sequence (P43115 1-390): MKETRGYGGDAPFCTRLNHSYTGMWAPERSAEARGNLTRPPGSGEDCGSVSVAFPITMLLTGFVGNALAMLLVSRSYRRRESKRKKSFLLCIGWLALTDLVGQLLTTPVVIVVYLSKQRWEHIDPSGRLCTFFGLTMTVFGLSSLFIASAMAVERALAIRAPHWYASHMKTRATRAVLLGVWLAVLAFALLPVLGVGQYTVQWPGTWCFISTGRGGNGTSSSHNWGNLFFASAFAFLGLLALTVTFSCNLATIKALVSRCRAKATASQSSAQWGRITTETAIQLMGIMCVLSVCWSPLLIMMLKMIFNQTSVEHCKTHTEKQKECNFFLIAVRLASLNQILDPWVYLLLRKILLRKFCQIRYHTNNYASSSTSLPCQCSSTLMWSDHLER
Method: (§4) HEK-293 (EBNA) cells, stably expressing one type or subtype of recombinant human prostaglandin receptors (prostaglandin receptors expressed: hDP/Gqs5; hEP1; hEP2/Gqs5; hEP3A/Gqi5; hEP4/Gqs5; hFP; hIP; hTP), were cultured in 100 mm culture dishes in high-glucose DMEM medium containing 10% fetal bovine serum, 2 mM 1-glutamine, 250 μg/ml geneticin (G418) and 200 μg/ml hygromycin B as selection markers, and 100 units/ml penicillin G, 100 μg/ml streptomycin and 0.25 μg/ml amphotericin B. • (b) Calcium Signal Studies on the FLIPR™
(§5) Cells were seeded at a density of 5×10^4 cells per well in Biocoat® Poly-D-lysine-coated black-wall, clear-bottom 96-well plates (Becton-Dickinson) and allowed to attach overnight in an incubator at 37° C. Cells were then washed two times with HBSS-HEPES buffer (Hanks Balanced Salt Solution without bicarbonate and phenol red, 20 mM HEPES, pH 7.4) using a Denley Cellwash plate washer (Labsystems). After 45 minutes of dye-loading in the dark, using the calcium-sensitive dye Fluo-4 AM at a final concentration of 2 μM, plates were washed four times with HBSS-HEPES buffer to remove excess dye leaving 100 μl in each well. Plates were re-equilibrated to 37° C. for a few minutes.
(§6) Cells were excited with an Argon laser at 488 nm, and emission was measured through a 510–570 nm bandwidth emission filter (FLIPR™, Molecular Devices, Sunnyvale, Calif.). Drug solution was added in a 50 μl volume to each well to give the desired final concentration. The peak increase in fluorescence intensity was recorded for each well. On each plate, four wells each served as negative (HBSS-HEPES buffer) and positive controls (standard agonists: BW245C (hDP); PGE2 (hEP1; hEP2/Gqs5; hEP3A/Gqi5; hEP4/Gqs5); PGF2α (hFP); carbacyclin (hIP); U46619 (hTP), depending on receptor). The peak fluorescence change in each drug-containing well was then expressed relative to the controls.
(§7) Compounds were tested in a high-throughput (HTS) or concentration-response (CoRe) format. In the HTS format, forty-four compounds per plate were examined in duplicates at a concentration of 10^−5 M. To generate concentration-response curves, four compounds per plate were tested in duplicates in a concentration range between 10^−5 and 10^−11 M. The duplicate values were averaged. In either, HTS or CoRe format each compound was tested on at least 3 separate plates using cells from different passages to give an n≧3.

hEP4/Gqs5 = biological target: T3, hEP4/Gqs5 (Homo sapiens, UniProt P35408); assay: FLIPR calcium signal, hEP4/Gqs5; format: cell-based; details: HEK-293 (EBNA) cells, read-out: FUNCTIONAL EC50 HEP4
T3 construct: expressed in transfected cells; host or cells: HEK-293 (EBNA)
T3 sequence (P35408 whole entry): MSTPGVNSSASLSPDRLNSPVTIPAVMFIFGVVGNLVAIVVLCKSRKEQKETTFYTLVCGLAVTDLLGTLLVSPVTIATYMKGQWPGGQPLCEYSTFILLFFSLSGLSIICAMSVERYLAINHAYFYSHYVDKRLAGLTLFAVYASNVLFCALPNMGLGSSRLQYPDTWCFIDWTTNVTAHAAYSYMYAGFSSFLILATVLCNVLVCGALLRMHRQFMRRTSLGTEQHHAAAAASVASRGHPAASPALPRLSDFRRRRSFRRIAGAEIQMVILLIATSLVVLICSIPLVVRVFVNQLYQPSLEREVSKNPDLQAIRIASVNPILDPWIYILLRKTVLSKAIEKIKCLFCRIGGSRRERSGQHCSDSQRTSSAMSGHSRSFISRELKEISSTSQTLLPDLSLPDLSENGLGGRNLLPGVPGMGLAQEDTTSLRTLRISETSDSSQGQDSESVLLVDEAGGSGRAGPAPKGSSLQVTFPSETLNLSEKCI
Method: as §4, §5, §6, §7

hTP = biological target: T4, hTP (Homo sapiens, UniProt P21731); assay: FLIPR calcium signal, hTP; format: cell-based; details: HEK-293 (EBNA) cells, read-out: FUNCTIONAL EC50 HTP
T4 construct: expressed in transfected cells; host or cells: HEK-293 (EBNA)
T4 sequence (P21731 1-343): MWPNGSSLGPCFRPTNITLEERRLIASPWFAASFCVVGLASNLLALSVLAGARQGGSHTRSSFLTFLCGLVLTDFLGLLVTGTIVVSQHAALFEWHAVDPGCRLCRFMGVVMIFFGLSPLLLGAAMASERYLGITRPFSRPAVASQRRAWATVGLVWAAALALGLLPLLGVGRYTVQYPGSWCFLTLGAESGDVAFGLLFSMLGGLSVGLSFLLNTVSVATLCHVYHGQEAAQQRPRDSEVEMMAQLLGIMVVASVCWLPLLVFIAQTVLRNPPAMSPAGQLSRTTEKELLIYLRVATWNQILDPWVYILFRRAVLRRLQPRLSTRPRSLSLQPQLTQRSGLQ
Method: as §4, §5, §6, §7

HEP3D = biological target: T5, HEP3D (Homo sapiens, UniProt P43115); assay: Radioligand binding, EP3 receptor; details: [3H]PGE2 5 nM
T5 sequence (P43115 1-374 isoform P43115-4): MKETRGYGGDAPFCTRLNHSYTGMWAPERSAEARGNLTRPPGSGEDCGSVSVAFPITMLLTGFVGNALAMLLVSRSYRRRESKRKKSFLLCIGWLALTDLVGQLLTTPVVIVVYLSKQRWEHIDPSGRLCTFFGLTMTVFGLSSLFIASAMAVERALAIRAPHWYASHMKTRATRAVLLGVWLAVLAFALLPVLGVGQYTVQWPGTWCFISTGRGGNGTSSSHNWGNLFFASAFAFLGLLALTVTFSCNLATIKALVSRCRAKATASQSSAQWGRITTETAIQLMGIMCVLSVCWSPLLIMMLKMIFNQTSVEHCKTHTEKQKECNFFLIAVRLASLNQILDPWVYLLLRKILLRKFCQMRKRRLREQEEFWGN
Method: as §1, §2, §3

T1 sequence (P35408 whole entry): as the sequence (P35408 whole entry) above

Row | pIC50 (HEP4) | pEC50 (hEP3A/Gqi5) | pEC50 (hEP4/Gqs5) | pEC50 (hTP) | pIC50 (HEP3D) | SMILES
1 | 5.89 |  | 6.44 |  |  | O=C(O)CSCCCS[C@H]1C(=O)C[C@@H](CO)[C@@H]1/C=C/C(O)CCc1cc2ccccc2s1 (single isomer, unassigned) [drawing 31]
2 | 7.00 |  | 6.33 |  |  | O=C(O)CSCCCS[C@H]1C(=O)C[C@@H](CO)[C@@H]1/C=C/C(O)CCc1cc2ccccc2s1 (single isomer, unassigned) [drawing 32]
3 | 5.80 |  | 5.63 |  |  | COC(=O)CSCCCS[C@H]1C(=O)C[C@@H](CO)[C@@H]1/C=C/C(O)CCc1ccc2ccccc2c1 (single isomer, unassigned) [drawing 38]
4 | 6.71 |  | 6.97 |  |  | COC(=O)CSCCCS[C@H]1C(=O)C[C@@H](CO)[C@@H]1/C=C/C(O)Cc1ccccc1 (single isomer, unassigned) [drawing 42]
5 | 5.98 |  | 5.68 |  |  | COC(=O)CSCCCS[C@H]1C(=O)C[C@@H](CO)[C@@H]1/C=C/C(O)Cc1ccccc1 (single isomer, unassigned) [drawing 43]
6 | 6.52 |  | 8.11 |  |  | COC(=O)CSCCCS[C@H]1C(=O)CC[C@@H]1/C=C/C(O)CCc1cc2ccccc2s1 (stereo partly drawn) [drawing 27, {3-[(1R,2R)-2-((E)-5-Benzo[b]thiophen-2-yl-3-hydroxy-pent-1-enyl)-5-oxo-cyclopentylsulfanyl]-propylsulfanyl}-acetic acid methyl ester]
7 | 5.68 |  | 5.10 |  |  | COC(=O)CSCCCS[C@H]1C(=O)C[C@@H](CO)[C@@H]1/C=C/C(O)CCc1cc2ccccc2s1 (stereo partly drawn) [drawing 29, {3-[(1R,2S,3R)-2-((E)-5-Benzo[b]thiophen-2-yl-3-hydroxy-pent-1-enyl)-3-hydroxymethyl-5-oxo-cyclopentylsulfanyl]-propylsulfanyl}-acetic acid methyl ester]
8 | 5.72 |  | < 5.00 |  |  | COC(=O)CSCCCS[C@H]1C(=O)C[C@@H](CO)[C@@H]1/C=C/C(O)CCc1cc2ccccc2s1 (stereo partly drawn) [drawing 30, {3-[(1R,2S,3R)-2-((E)-5-Benzo[b]thiophen-2-yl-3-hydroxy-pent-1-enyl)-3-hydroxymethyl-5-oxo-cyclopentylsulfanyl]-propylsulfanyl}-acetic acid methyl ester]

The remaining lines, values behind:

Row | SMILES | pIC50 (HEP4) | pEC50 (hEP3A/Gqi5) | pEC50 (hEP4/Gqs5) | pEC50 (hTP) | pIC50 (HEP3D)
9 | CC(O)(/C=C/[C@H]1CCC(=O)[C@@H]1SCCCSCC(=O)O)CCc1ccc2ccccc2c1 (single isomer, unassigned) [drawing 24] | 7.02 | < 5.00 | 8.74 | < 5.00 | 
10 | CC(O)(/C=C/[C@H]1CCC(=O)[C@@H]1SCCCSCC(=O)O)CCc1ccc2ccccc2c1 (single isomer, unassigned) [drawing 33] | 6.70 |  | 7.70 | < 5.00 | 
11 | COC(=O)CSCCCS[C@H]1C(=O)CC[C@@H]1/C=C/C(O)Cc1ccccc1 (single isomer, unassigned) [drawing 45] | 6.85 |  | 7.82 |  | 
12 | O=C(O)CSCCCS[C@H]1C(=O)CC[C@@H]1/C=C/C(O)Cc1ccccc1 (single isomer, unassigned) [drawing 47] | 7.26 | < 5.00 | 7.22 |  | < 5.00
13 | O=C(O)CSCCCS[C@H]1C(=O)C[C@@H](CO)[C@@H]1/C=C/C(O)Cc1ccccc1 (single isomer, unassigned) [drawing 50] | 6.36 |  | 6.87 |  | 
14 | COC(=O)CSCCCS[C@H]1C(=O)CC[C@@H]1/C=C/C(O)CCc1ccc2ccccc2c1 (stereo partly drawn) [drawing 34, {3-[(1R,2R)-2-((E)-3-Hydroxy-5-naphthalen-2-yl-pent-1-enyl)-5-oxo-cyclopentylsulfanyl]-propylsulfanyl}-acetic acid methyl ester] | 6.52 |  | 9.30 |  | 
15 | COC(=O)CSCCCS[C@H]1C(=O)CC[C@@H]1/C=C/C(O)CCc1ccc2ccccc2c1 (stereo partly drawn) [drawing 35, {3-[(1R,2R)-2-((E)-3-Hydroxy-5-naphthalen-2-yl-pent-1-enyl)-5-oxo-cyclopentylsulfanyl]-propylsulfanyl}-acetic acid methyl ester] | 6.70 |  | 9.22 |  | 
16 | O=C(O)CSCCCS[C@H]1C(=O)C[C@@H](CO)[C@@H]1/C=C/C(O)CCc1ccc2ccccc2c1 (stereo partly drawn) [drawing 40, {3-[(1R,2S,3R)-3-Hydroxymethyl-2-((E)-3-hydroxy-5-naphthalen-2-yl-pent-1-enyl)-5-oxo-cyclopentylsulfanyl]-propylsulfanyl}-acetic acid] | 6.00 |  | 6.33 |  | 
17 | COC(=O)CSCCCS[C@H]1C(=O)CC[C@@H]1/C=C/C(C)(O)CCc1ccc2ccccc2c1 (stereo partly drawn) [{3-[(1R,2R)-2-((E)-3-Hydroxy-3-methyl-5-naphthalen-2-yl-pent-1-enyl)-5-oxo-cyclopentylsulfanyl]-propylsulfanyl}-acetic acid methyl ester] | 6.30 |  | 7.34 |  | 
18 | COC(=O)CSCCCS[C@H]1C(=O)CC[C@@H]1/C=C/C(O)Cc1ccc2ccccc2c1 (stereo partly drawn) [{3-[(1R,2R)-2-((E)-3-Hydroxy-4-naphthalen-2-yl-but-1-enyl)-5-oxo-cyclopentylsulfanyl]-propylsulfanyl}-acetic acid methyl ester] | 7.08 |  |  |  | < 5.00
